# Test results from ChEMBL document CHEMBL1201862, “PubChem BioAssay data set” (2004).
#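 Cultured in 96-well plates, cells were exposed to test compound for 48 hours across five concentrations. Here, GI50 denotes the concentration required for 50% inhibition of growth.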 The source made the active and inactive calls. Cut-off read from the data, not from the text of the source: active = GI50 up to about 1.1 µM and inactive = higher.
# Key:
# Experiment in all cases: NCI tumour cell line growth inhibition, 48 h
# [1] = tested on: U-251
# [2] = tested on: SF-268
# [3] = tested on: NCI-H226
# [4] = tested on: ACHN
# [5] = tested on: 786-0
# [6] = tested on: UACC-62
# [7] = tested on: UACC-257
# [8] = tested on: HCT-15
# [9] = tested on: IGROV-1
# [10] = tested on: CCRF-CEM
# [11] = tested on: SF-539
# [12] = tested on: SNB-78
# [13] = tested on: RPMI-8226
# [14] = tested on: HCT-116
# [15] = tested on: A549
# [16] = tested on: HOP-18
# [17] = tested on: SK-OV-3
# [18] = tested on: Malme-3M
# [19] = tested on: RXF 393
# [20] = tested on: RXF 631
# [21] = tested on: HOP-92
# [22] = tested on: HCC 2998
# [23] = tested on: M19-MEL
# [24] = tested on: SW-620
# [25] = tested on: XF498
# [26] = tested on: OVCAR-3
# [27] = tested on: SNB-19
# [28] = tested on: SN12C
# [29] = tested on: KM-20L2
# [30] = tested on: SR
# [31] = tested on: HOP-62
# [32] = tested on: SK-MEL-2
# [33] = tested on: NCI-H23
# [34] = tested on: UO-31
# [35] = tested on: OVCAR-8
# [36] = tested on: OVCAR-5
# [37] = tested on: MOLT-4
# [38] = tested on: HL-60
# [39] = tested on: TK-10
# [40] = tested on: EKVX
# [41] = tested on: SK-MEL-28
# [42] = tested on: LXFL 529
# [43] = tested on: DMS-273
# [44] = tested on: SF-295
# [45] = tested on: COLO 205
# [46] = tested on: DMS-114
# [47] = tested on: K562
# [48] = tested on: DLD-1
# [49] = tested on: KM12
# [50] = tested on: NCI-H522
# [51] = tested on: SNB-75
# [52] = tested on: M14
# [53] = tested on: CAKI-1
# [54] = tested on: NCI-H460
# [55] = tested on: SK-MEL-5
# [56] = tested on: HT-29
# [57] = tested on: A498
# [58] = tested on: OVCAR-4
# [59] = tested on: LOX IMVI
structure (smiles),measurement,setting,value
Cc1cc2c(C)nn(Cc3ccc(Cl)cc3)c2c(C#N)c1C,GI50,[1],> 100 µM (inactive)
same,GI50,[2],> 100 µM (inactive)
same,GI50,[3],> 100 µM (inactive)
same,GI50,[4],> 100 µM (inactive)
same,GI50,[5],63.2 µM (inactive)
same,GI50,[6],> 100 µM (inactive)
same,GI50,[7],> 100 µM (inactive)
same,GI50,[8],> 100 µM
same,GI50,[9],> 100 µM (inactive)
same,GI50,[10],> 100 µM (inactive)
same,GI50,[11],> 100 µM (inactive)
same,GI50,[12],> 100 µM (inactive)
same,GI50,[13],> 100 µM (inactive)
same,GI50,[14],> 100 µM (inactive)
same,GI50,[15],> 100 µM (inactive)
same,GI50,[16],> 100 µM (inactive)
same,GI50,[17],> 100 µM (inactive)
same,GI50,[18],> 100 µM (inactive)
same,GI50,[19],45.9 µM (inactive)
same,GI50,[20],> 100 µM (inactive)
same,GI50,[21],35.6 µM (inactive)
same,GI50,[22],> 100 µM (inactive)
same,GI50,[23],> 100 µM (inactive)
same,GI50,[24],> 100 µM (inactive)
same,GI50,[25],39.1 µM (inactive)
same,GI50,[26],> 100 µM (inactive)
same,GI50,[27],63.5 µM (inactive)
same,GI50,[28],> 100 µM (inactive)
same,GI50,[29],> 100 µM (inactive)
same,GI50,[30],> 100 µM (inactive)
same,GI50,[31],> 100 µM (inactive)
same,GI50,[32],> 100 µM (inactive)
same,GI50,[33],> 100 µM (inactive)
same,GI50,[34],> 100 µM (inactive)
same,GI50,[35],> 100 µM (inactive)
same,GI50,[36],> 100 µM (inactive)
same,GI50,[37],> 10 µM (inactive)
same,GI50,[38],> 100 µM (inactive)
same,GI50,[39],> 100 µM (inactive)
same,GI50,[40],> 100 µM (inactive)
same,GI50,[41],> 100 µM (inactive)
same,GI50,[42],> 100 µM (inactive)
same,GI50,[43],> 100 µM (inactive)
same,GI50,[44],46.2 µM (inactive)
same,GI50,[45],> 100 µM (inactive)
Cn1c(=O)ccc2cc(C(=O)c3ccccc3)ccc21,GI50,[1],84.9 µM (inactive)
same,GI50,[2],76.6 µM (inactive)
same,GI50,[3],21.2 µM (inactive)
same,GI50,[46],22.1 µM (inactive)
same,GI50,[4],36.8 µM (inactive)
same,GI50,[5],83.2 µM (inactive)
same,GI50,[6],14.6 µM (inactive)
same,GI50,[8],53.3 µM
same,GI50,[47],44.1 µM (inactive)
same,GI50,[9],24.7 µM (inactive)
same,GI50,[10],69.7 µM (inactive)
same,GI50,[11],42.3 µM (inactive)
same,GI50,[13],47.5 µM (inactive)
same,GI50,[48],> 100 µM (inactive)
same,GI50,[14],73.5 µM (inactive)
same,GI50,[49],> 100 µM (inactive)
same,GI50,[50],20.4 µM (inactive)
same,GI50,[15],71.1 µM (inactive)
same,GI50,[16],36.6 µM (inactive)
same,GI50,[17],> 100 µM (inactive)
same,GI50,[18],> 100 µM (inactive)
same,GI50,[20],64.3 µM (inactive)
same,GI50,[21],34.8 µM (inactive)
same,GI50,[22],> 100 µM (inactive)
same,GI50,[23],55.3 µM (inactive)
same,GI50,[24],> 100 µM (inactive)
same,GI50,[25],16.7 µM (inactive)
same,GI50,[26],44.4 µM (inactive)
same,GI50,[51],12.3 µM (inactive)
same,GI50,[52],> 100 µM (inactive)
same,GI50,[27],68.1 µM (inactive)
same,GI50,[28],46.6 µM (inactive)
same,GI50,[29],73.5 µM (inactive)
same,GI50,[53],39.4 µM (inactive)
same,GI50,[31],> 100 µM (inactive)
same,GI50,[32],> 100 µM (inactive)
same,GI50,[33],55 µM (inactive)
same,GI50,[54],> 100 µM (inactive)
same,GI50,[35],58.6 µM (inactive)
same,GI50,[36],> 100 µM (inactive)
same,GI50,[37],69.7 µM (inactive)
same,GI50,[55],22.8 µM (inactive)
same,GI50,[38],23.6 µM (inactive)
same,GI50,[39],35.2 µM (inactive)
same,GI50,[40],34.2 µM (inactive)
same,GI50,[41],> 100 µM (inactive)
same,GI50,[42],45.8 µM (inactive)
same,GI50,[43],35.3 µM (inactive)
same,GI50,[56],46 µM (inactive)
same,GI50,[44],79.3 µM (inactive)
same,GI50,[57],32.6 µM (inactive)
same,GI50,[58],46.9 µM (inactive)
same,GI50,[45],> 100 µM (inactive)
same,GI50,[59],57.3 µM (inactive)
